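Assay format: 96-well plates, 48-hour exposure. GI50 = concentration required for 50% inhibition of growth.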 Activity calls are given as the source filed them. No stated cut-off is given here; in the data, active = GI50 up to about 1.1 µM and inactive = higher.
What was measured:
Experiment in all cases: DTP human tumour cell line panel, 48 h
HCC 2998 = system: HCC 2998
SK-MEL-2 = system: SK-MEL-2
SK-MEL-5 = system: SK-MEL-5
SN12C = system: SN12C
OVCAR-5 = system: OVCAR-5
NCI-H23 = system: NCI-H23
UO-31 = system: UO-31
SNB-19 = system: SNB-19
UACC-257 = system: UACC-257
KM12 = system: KM12
U-251 = system: U-251
A498 = system: A498
HCT-15 = system: HCT-15
NCI/ADR-RES = system: NCI/ADR-RES
NCI-H226 = system: NCI-H226
SW-620 = system: SW-620
SK-MEL-28 = system: SK-MEL-28
RXF 393 = system: RXF 393
MDA-N = system: MDA-N
Malme-3M = system: Malme-3M

Structure (SMILES) | GI50 (HCC 2998) | GI50 (SK-MEL-2) | GI50 (SK-MEL-5) | GI50 (SN12C) | GI50 (OVCAR-5) | GI50 (NCI-H23) | GI50 (UO-31) | GI50 (SNB-19) | GI50 (UACC-257) | GI50 (KM12) | GI50 (U-251) | GI50 (A498) | GI50 (HCT-15) | GI50 (NCI/ADR-RES) | GI50 (NCI-H226) | GI50 (SW-620) | GI50 (SK-MEL-28) | GI50 (RXF 393) | GI50 (MDA-N) | GI50 (Malme-3M)
COc1ccc(-[n+]2nc(S(=O)(=O)O)c(/C=C/c3ccc(N(C)C)cc3)cc2C#N)cc1 | > 100 µM (inactive) | > 100 µM (inactive) | > 100 µM (inactive) | > 100 µM (inactive) | > 100 µM (inactive) | > 100 µM (inactive) | > 100 µM (inactive) | > 100 µM (inactive) | > 100 µM (inactive) | > 100 µM (inactive) | > 100 µM (inactive) | > 100 µM (inactive) | > 100 µM | > 100 µM (inactive) | > 100 µM (inactive) | > 100 µM (inactive) | > 100 µM (inactive) |  |  | 
CCOC(=O)c1ccc2c(c1)nc1n2C(c2c(F)cccc2F)SC1 (stereo not given) | 35.8 µM (inactive) | 15.2 µM (inactive) | 13.1 µM (inactive) | 56.4 µM (inactive) | 59.6 µM (inactive) | 17.6 µM (inactive) | 29.2 µM (inactive) | 12.2 µM (inactive) | 38 µM (inactive) | 17.1 µM (inactive) | 55.6 µM (inactive) | > 100 µM (inactive) | 23.3 µM | 18.8 µM (inactive) | 6.9 µM (inactive) | 54.6 µM (inactive) | 97.1 µM (inactive) | 51.6 µM (inactive) |  | 
CS(=O)(=O)c1nc(-c2cc3c(c(S(C)(=O)=O)n2)CCCC3)cc2c1CCCCC2 |  | > 100 µM (inactive) | > 100 µM (inactive) | > 100 µM (inactive) | > 100 µM (inactive) | > 100 µM (inactive) | 0.0206 µM (active) | > 100 µM (inactive) | > 100 µM (inactive) | > 100 µM (inactive) | > 100 µM (inactive) |  | > 100 µM | > 100 µM (inactive) | > 100 µM (inactive) | > 100 µM (inactive) | > 100 µM (inactive) | 48.6 µM (inactive) | > 100 µM (inactive) | 
Cc1cc(Cl)cc2c1NC(=O)C2(O)C(C)C(=O)c1ccc(Cl)cc1 (stereo not given) | > 100 µM (inactive) | > 100 µM (inactive) | 27.7 µM (inactive) | > 74.1 µM (inactive) | > 100 µM (inactive) | > 72.1 µM (inactive) | > 100 µM (inactive) | > 100 µM (inactive) | 42.6 µM (inactive) | 99.1 µM (inactive) | 72.4 µM (inactive) | > 57.7 µM (inactive) | > 89.1 µM |  | > 60.1 µM (inactive) | > 74.8 µM (inactive) | > 62.1 µM (inactive) | 47.8 µM (inactive) |  | > 61.7 µM (inactive)
C/C(=N\NC(=S)N1CCN(C)CC1)c1nc2cccnc2[nH]1 | > 100 µM (inactive) |  | > 100 µM (inactive) | > 100 µM (inactive) | > 100 µM (inactive) | > 100 µM (inactive) | 32 µM (inactive) | > 100 µM (inactive) | > 100 µM (inactive) | > 100 µM (inactive) | > 100 µM (inactive) | > 100 µM (inactive) | > 100 µM | > 100 µM (inactive) | > 100 µM (inactive) | > 100 µM (inactive) | > 100 µM (inactive) |  |  | > 100 µM (inactive)
CC1=CC[C@@]2(C)CC[C@](O)(C(C)C)C2C(OC(=O)c2ccccc2)C1 (stereo not given in full) | 11.8 µM (inactive) | 14.4 µM (inactive) | 18.3 µM (inactive) | 23.6 µM (inactive) | 16 µM (inactive) | 18.5 µM (inactive) | 17.3 µM (inactive) | 20.7 µM (inactive) | 18.9 µM (inactive) | 18.4 µM (inactive) | 27.8 µM (inactive) | 24.4 µM (inactive) | 18.7 µM | 19.7 µM (inactive) | 23.8 µM (inactive) | 22.3 µM (inactive) | 24 µM (inactive) | 12.7 µM (inactive) |  | 21 µM (inactive)
O=C1Oc2ccccc2C(=O)/C1=C/NC(=S)NCCc1ccccc1 | 43.2 µM (inactive) | 19.4 µM (inactive) | 45.7 µM (inactive) | 40 µM (inactive) | 68.4 µM (inactive) | 33.1 µM (inactive) | 17.1 µM (inactive) | 37.7 µM (inactive) | 62.1 µM (inactive) | 37.2 µM (inactive) | 53.6 µM (inactive) |  | 34.6 µM | 38.7 µM (inactive) | > 100 µM (inactive) | 42.6 µM (inactive) | > 100 µM (inactive) | 39.8 µM (inactive) | 32.8 µM (inactive) | 
COc1ccc(-c2cc(C(=O)Nc3cccc(C(F)(F)F)c3)nc(S)n2)cc1 | > 100 µM (inactive) | > 100 µM (inactive) | > 100 µM (inactive) | > 100 µM (inactive) | > 100 µM (inactive) | > 100 µM (inactive) | > 100 µM (inactive) | > 100 µM (inactive) | > 100 µM (inactive) | > 100 µM (inactive) | > 100 µM (inactive) | > 100 µM (inactive) | > 100 µM |  | > 100 µM (inactive) | > 100 µM (inactive) | > 100 µM (inactive) | > 100 µM (inactive) |  | > 100 µM (inactive)
O=C(O)c1cc2ccc(Cl)cc2c(O)c1C1=CCCCC1 | > 100 µM (inactive) | 19.9 µM (inactive) | 30.3 µM (inactive) | 46.8 µM (inactive) | 54.1 µM (inactive) | 26.4 µM (inactive) | 34.8 µM (inactive) | 39 µM (inactive) | 31.5 µM (inactive) | 42.4 µM (inactive) | 36.9 µM (inactive) | 32.6 µM (inactive) | 56.8 µM |  | 26.7 µM (inactive) | 44.5 µM (inactive) | 66.5 µM (inactive) | 36.5 µM (inactive) |  | 50.1 µM (inactive)
CC(=O)O[C@H]1CC[C@@]2(C)C(=CC[C@@H]3C2CC[C@]2(C)Nc4c(cnn4-c4ccccc4)CC32)C1 (stereo not given in full) | 16 µM (inactive) | 54.6 µM (inactive) | 28.1 µM (inactive) |  | 19.2 µM (inactive) | 28.2 µM (inactive) | 27.1 µM (inactive) |  | 12.4 µM (inactive) | 11.9 µM (inactive) | 4.98 µM (inactive) | 10.6 µM (inactive) | 10.4 µM |  | > 100 µM (inactive) | 19.4 µM (inactive) | 10.4 µM (inactive) | 3.53 µM (inactive) |  | 29.9 µM (inactive)
Cc1ccc(-n2c(N)c(C#N)c3[nH]nc(N)c3c2=O)cc1 | > 100 µM (inactive) | > 100 µM (inactive) | > 100 µM (inactive) |  |  | > 100 µM (inactive) | > 100 µM (inactive) | > 100 µM (inactive) | > 100 µM (inactive) | > 100 µM (inactive) | > 100 µM (inactive) | > 100 µM (inactive) | > 100 µM | > 100 µM (inactive) | 41 µM (inactive) | > 100 µM (inactive) | > 100 µM (inactive) | > 100 µM (inactive) |  | 
C/C(=N/O)c1cccc(Nc2nc3ccc(Cl)cc3c3[nH]c4ccccc4c23)c1 |  | 1.93 µM (inactive) | 1.18 µM (inactive) | 2.51 µM (inactive) | 2.07 µM (inactive) | 1.92 µM (inactive) | 2.33 µM (inactive) | 2.88 µM (inactive) | 3.53 µM (inactive) | 1.38 µM (inactive) | 2.44 µM (inactive) |  | 1.44 µM | 1.92 µM (inactive) | 2.69 µM (inactive) | 1.06 µM (active) | 2.12 µM (inactive) | 1.67 µM (inactive) | 1.71 µM (inactive) | 
C=CCNC(=S)N/C=C(/C(C)=O)C(=O)Nc1ccccc1C | > 100 µM (inactive) | > 100 µM (inactive) | > 100 µM (inactive) | > 100 µM (inactive) | > 100 µM (inactive) | > 100 µM (inactive) | > 100 µM (inactive) | > 100 µM (inactive) | > 100 µM (inactive) | > 100 µM (inactive) | > 100 µM (inactive) |  | > 100 µM | > 100 µM (inactive) | > 100 µM (inactive) | > 100 µM (inactive) |  | > 100 µM (inactive) | > 100 µM (inactive) | 
O=C1NC2C=CN(Cc3ccccc3)C=C2C(=O)N2CCCC12 (stereo not given) | > 100 µM (inactive) | > 100 µM (inactive) | > 100 µM (inactive) | > 100 µM (inactive) | > 100 µM (inactive) | > 100 µM (inactive) | > 100 µM (inactive) | > 100 µM (inactive) | > 100 µM (inactive) | > 100 µM (inactive) | > 100 µM (inactive) | > 100 µM (inactive) | > 100 µM |  | > 100 µM (inactive) | > 100 µM (inactive) | > 100 µM (inactive) | > 100 µM (inactive) |  | > 100 µM (inactive)
COc1cc2c(cc1OS(C)(=O)=O)N=C[C@@H]1CCCN1C2=O | > 100 µM (inactive) | > 100 µM (inactive) | > 100 µM (inactive) | > 100 µM (inactive) |  | > 100 µM (inactive) | > 100 µM (inactive) | > 100 µM (inactive) | > 100 µM (inactive) | > 100 µM (inactive) | > 100 µM (inactive) | > 100 µM (inactive) | > 100 µM |  | > 100 µM (inactive) | > 100 µM (inactive) | > 100 µM (inactive) | > 100 µM (inactive) |  | > 100 µM (inactive)
COC(=O)C1=C(C)NC(C)=C(C(=O)OC)C1c1ccccc1NO | > 100 µM (inactive) | > 100 µM (inactive) | > 100 µM (inactive) | > 100 µM (inactive) | > 100 µM (inactive) | > 100 µM (inactive) | > 100 µM (inactive) | > 100 µM (inactive) | > 100 µM (inactive) | > 100 µM (inactive) | > 100 µM (inactive) | > 100 µM (inactive) | > 100 µM | > 100 µM (inactive) | > 100 µM (inactive) | 68.1 µM (inactive) | > 100 µM (inactive) | > 100 µM (inactive) |  | > 100 µM (inactive)

From ChEMBL document CHEMBL1201862, “PubChem BioAssay data set” (2004)
